Source: the supplement of paper PMC5908809

What was measured:
[1] = system: normal primary NK cells, pool 1 (3 donors) (IL-2 2.5 ng/mL); experiment: percent inhibition of viability; higher = more inhibition; conditions: 72 h
NK-92 (IL-2 2.5 ng/mL) [2] = experiment: as above; conditions: 72 h
NKL (IL-2 2.5 ng/mL) [3] = experiment: as above; conditions: 72 h
[4] = system: normal primary NK cells, pool 3 (3 donors) (IL-2 2.5 ng/mL); experiment: as above; conditions: 72 h
KHYG-1 (IL-2 2.5 ng/mL) [5] = experiment: as above; conditions: 72 h
YT (IL-2 2.5 ng/mL) [6] = experiment: as above; conditions: 72 h
IMC-1 (IL-2 20 ng/mL) [7] = experiment: as above; conditions: 72 h
DERL-7 (IL-2 2.5 ng/mL) [8] = experiment: as above; conditions: 72 h
SNK-6 (IL-2 2.5 ng/mL) [9] = experiment: as above; conditions: 72 h
[10] = system: normal primary NK cells, pool 1 (3 donors), resting (IL-2 0 ng/mL); experiment: as above; conditions: 72 h
[11] = system: normal primary NK cells, pool 2 (3 donors) (IL-2 2.5 ng/mL); experiment: as above; conditions: 72 h
KAI3 (IL-2 2.5 ng/mL) [12] = experiment: as above; conditions: 72 h
NK-YS (IL-2 2.5 ng/mL) [13] = experiment: as above; conditions: 72 h
[14] = system: normal primary NK cells, pool 1 (3 donors) (IL-2 2.5 ng/mL); experiment: drug sensitivity score (DSS) (DSS units); higher = more sensitive; extreme values may be limits of the assay; conditions: 72 h
NK-92 (IL-2 2.5 ng/mL) [15] = experiment: as above; conditions: 72 h
NKL (IL-2 2.5 ng/mL) [16] = experiment: as above; conditions: 72 h
[17] = system: normal primary NK cells, pool 3 (3 donors) (IL-2 2.5 ng/mL); experiment: as above; conditions: 72 h
KHYG-1 (IL-2 2.5 ng/mL) [18] = experiment: as above; conditions: 72 h
YT (IL-2 2.5 ng/mL) [19] = experiment: as above; conditions: 72 h
IMC-1 (IL-2 20 ng/mL) [20] = experiment: as above; conditions: 72 h
DERL-7 (IL-2 2.5 ng/mL) [21] = experiment: as above; conditions: 72 h
SNK-6 (IL-2 2.5 ng/mL) [22] = experiment: as above; conditions: 72 h
[23] = system: normal primary NK cells, pool 1 (3 donors), resting (IL-2 0 ng/mL); experiment: as above; conditions: 72 h
[24] = system: normal primary NK cells, pool 2 (3 donors) (IL-2 2.5 ng/mL); experiment: as above; conditions: 72 h
KAI3 (IL-2 2.5 ng/mL) [25] = experiment: as above; conditions: 72 h
NK-YS (IL-2 2.5 ng/mL) [26] = experiment: as above; conditions: 72 h
[27] = system: normal NK cells expanded with K562-aAPC; experiment: percent inhibition of viability; higher = more inhibition; conditions: 72 h, IL-2 2.5 ng/mL
Experimental: (§1)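 Drug sensitivity and resistance testing on K562-aAPC-expanded normal NK cells: 5 concentrations (10-fold steps over a 10,000-fold range), 72 h at 37 °C, viability by CellTiter-Glo normalised to DMSO and benzethonium chloride controls; DSS from the fitted curve.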

[28] = system: normal NK cells expanded with K562-aAPC; experiment: drug sensitivity score (DSS) (DSS units); higher = more sensitive; extreme values may be limits of the assay; conditions: 72 h; IL-2 2.5 ng/mL
Experimental: as §1

Nc1ccccc1NC(=O)c1ccc(CNC(=O)OCc2cccnc2)cc1 [Entinostat] (max concentration tested 10000 nM)
percent inhibition of viability [%]
Conditions | 1 nM | 10 nM | 100 nM | 1000 nM | 10000 nM
DERL-7 (IL-2 2.5 ng/mL) [8] | 0.45 | 2.75 | -7.22 | 24.5 | 99.7
IMC-1 (IL-2 20 ng/mL) [7] | 2.59 | 0.46 | 1.95 | 10.1 | 99.8
KAI3 (IL-2 2.5 ng/mL) [12] | -0.78 | 3.8 | 18.4 | 66.9 | 94
KHYG-1 (IL-2 2.5 ng/mL) [5] | -9.03 | -10.2 | -4.46 | 50.8 | 95.8
NK-92 (IL-2 2.5 ng/mL) [2] | -11.3 | -2.61 | 7.67 | 73.5 | 96.4
NK-YS (IL-2 2.5 ng/mL) [13] | -7.17 | -13.1 | -7.95 | 20.5 | 95.3
NKL (IL-2 2.5 ng/mL) [3] | -7.74 | -3.03 | 2.66 | 77.8 | 94
SNK-6 (IL-2 2.5 ng/mL) [9] | 9.17 | 8.55 | 15.6 | 65 | 95.2
YT (IL-2 2.5 ng/mL) [6] | 0.9 | -0.08 | 4.17 | 7.95 | 93.3
[1] | -1.3 | 1.71 | 4.63 | 34.1 | 97.6
[4] | -13.6 | -2.26 | -9.76 | 3.4 | 97.7
[10] | -8 | -8.09 | 10.2 | 61.1 | 92.3
[11] | -6.42 | -3.08 | -10.5 | 24.5 | 95.8
[27] | -3.4 | 0.57 | -3.46 | 17.8 | 99.5

Conditions | drug sensitivity score
DERL-7 (IL-2 2.5 ng/mL) [21] | 9.28
IMC-1 (IL-2 20 ng/mL) [20] | 7.18
KAI3 (IL-2 2.5 ng/mL) [25] | 14.8
KHYG-1 (IL-2 2.5 ng/mL) [18] | 11.5
NK-92 (IL-2 2.5 ng/mL) [15] | 14.8
NK-YS (IL-2 2.5 ng/mL) [26] | 8.53
NKL (IL-2 2.5 ng/mL) [16] | 14.6
SNK-6 (IL-2 2.5 ng/mL) [22] | 14.4
YT (IL-2 2.5 ng/mL) [19] | 6.43
[14] | 9.83
[17] | 5.88
[23] | 13
[24] | 9.03
[28] | 8.42

C=C1C[C@@H]2[C@H](CC[C@]3(C)C(=O)CC[C@@H]23)[C@@]2(C)C=CC(=O)C=C12 [Exemestane] (max concentration tested 10000 nM)
percent inhibition of viability [%]
Conditions | 1 nM | 10 nM | 100 nM | 1000 nM | 10000 nM
DERL-7 (IL-2 2.5 ng/mL) [8] | -0.04 | 2.07 | -0.5 | 8.21 | 26.2
IMC-1 (IL-2 20 ng/mL) [7] | -4.22 | 2.93 | 0.3 | 7.31 | 12.9
KAI3 (IL-2 2.5 ng/mL) [12] | 0.1 | 9.66 | 6.63 | 5.02 | 42
KHYG-1 (IL-2 2.5 ng/mL) [5] | -6.37 | 13.7 | -2.18 | 12.3 | 29.8
NK-92 (IL-2 2.5 ng/mL) [2] | -2.32 | 9.27 | 5.72 | 8.66 | 44.8
NK-YS (IL-2 2.5 ng/mL) [13] | -2.57 | 3.99 | 3.16 | 2.81 | 18.9
NKL (IL-2 2.5 ng/mL) [3] | -3.13 | 9.66 | -3.12 | 3.19 | 14.4
SNK-6 (IL-2 2.5 ng/mL) [9] | -1.73 | 3.81 | 3.19 | 27.1 | 40.9
YT (IL-2 2.5 ng/mL) [6] | -3.57 | 11.7 | -3.54 | 1.89 | 7.92
[1] | -3.16 | -4.6 | 2.49 | -8.32 | 47.6
[4] | -5.22 | -9.04 | 7.22 | 1.19 | 30.5
[10] | 3.47 | -11.3 | -6.56 | -1.56 | 75.8
[11] | -7.91 | -3.9 | 6.14 | 2.28 | 47.6
[27] | -3.29 | -0.41 | 3.42 | 12.7 | 35.6

Conditions | drug sensitivity score
DERL-7 (IL-2 2.5 ng/mL) [21] | 2.16
IMC-1 (IL-2 20 ng/mL) [20] | 0.35
KAI3 (IL-2 2.5 ng/mL) [25] | 2.96
KHYG-1 (IL-2 2.5 ng/mL) [18] | 2.88
NK-92 (IL-2 2.5 ng/mL) [15] | 3.74
NK-YS (IL-2 2.5 ng/mL) [26] | 0.88
NKL (IL-2 2.5 ng/mL) [16] | 0.48
SNK-6 (IL-2 2.5 ng/mL) [22] | 5.29
YT (IL-2 2.5 ng/mL) [19] | 0
[14] | 1.99
[17] | 1.49
[23] | 4.06
[24] | 2.8
[28] | 3.07
